According to article PMC10357929 (Journal of the American Chemical Society, 2023):
Entries after “also recorded” stand apart in the source; their conditions may differ.

Legend:
p53Y220C [1] = molecular target: T1, p53Y220C (Homo sapiens, UniProt P04637, Y220C); experiment: Western blot / FLAG-IP of p53K382ac level in NCI-H1299; type: cell-based
p53Y220C and p300 = p53Y220C and p300 (Homo sapiens, UniProt P04637+Q09472, Y220C); experiment: p53-FLAG pull-down of p53Y220C-p300 ternary complex; type: cell-based; conditions: 24 h
NCI-H1299 p53-null cells [2] = experiment: Cell viability assay; type: cell-based; conditions: 72 h
NCI-H1299 p53-null cells [3] = experiment: Western blot of p53K382ac level in NCI-H1299 p53-null cells; type: cell-based; conditions: 0, 1, 3, 10 μM, 24 h
BxPC3 cells = experiment: Clonogenic assay, BxPC3; type: cell-based; conditions: 1, 3, 10 μM, 14 days; compared to PK9328 and compound 33
NUGC-3 cells = experiment: Clonogenic assay, NUGC-3; type: cell-based; conditions: 1, 3, 10 μM, 14 days; compared to PK9328 and compound 33
p53Y220C [4] = molecular target: T1, p53Y220C; experiment: Western blot of p53K382ac level in BxPC3 cells; type: cell-based; conditions: 10 μM, 24 h
p53Y220C [5] = molecular target: T1, p53Y220C; experiment: Western blot of p53K382ac level in NUGC-3 cells; type: cell-based; conditions: 10 μM, 24 h
[6] = test system: p53 WT U-2OS cancer cells; experiment: Cell viability assay; type: cell-based; conditions: 72 h; for inhibition of cell growth at the highest concentration tested: 10 μM
PNT2 cells = experiment: Cytotoxicity in normal prostate cell line PNT2; type: cell-based; conditions: read-out: GI50 (cytotoxicity)
p53-target genes [7] = experiment: RT-qPCR of p53-target genes in NCI-H1299 p53Y220C stable cells; type: cell-based; conditions: 10 μM, 24 h; for increase in p21 mRNA expression: relative to DMSO
p53-target genes [8] = experiment: RNA-seq in NCI-H1299 p53-null and p53Y220C cells; type: cell-based, human; conditions: 10 μM, 24 h
BxPC3 (p53Y220C/−) cells = conditions: for GI50: 72 h
[9] = test system: NUGC-3 (p53Y220C/+) cells; conditions: 72 h
[10] = test system: other bromodomain-containing proteins; experiment: BromoMelt profiling against other bromodomain-containing proteins; conditions: 10 μM, duplicates
p53Y220C [11] = molecular target: T1, p53Y220C; conditions: cited from earlier work
[12] = p300-siRNA 72 h, then compound 72 h

CCn1c2ccc(CNCCOCCOCCOCCn3cc(COc4ccc(CCc5nc6cc(-c7c(C)noc7C)ccc6n5CCN5CCOCC5)cc4F)nn3)cc2c2ccc(-c3cc(C)cs3)cc21 [MS78]
K382 acetylation (p53Y220C [1]; 0, 1, 3, 10 μM, 24 h, NCI-H1299 p53Y220C): significantly induced K382 acetylation | increase in p53K382ac level (p53Y220C [1]; 10 μM, 6 h): about 2 fold | increase in p53K382ac level (p53Y220C [1]; 10 μM, 24 h): about 4 fold | p53K382ac induction compared to compound 7 (p53Y220C [1]; 10 μM, 24 h): about 2 fold | p53Y220C K382 acetylation in p300 siRNA-treated cells (p53Y220C [1]; p300 knockdown, NCI-H1299 (p53Y220C)): significantly diminished; also recorded: abolished | EC50 (p53Y220C [1]; read-out: ACE50 (the concentration at which 50% of p53Y220C is acetylated), 24 h, acetylation level at 10 μM MS78 as the maximum response): 1.87 ± 0.3 µM | p53-p300 interaction (FLAG pull-down) (p53Y220C and p300; NCI-H1299 p53-null cells): no interaction was observed | p53Y220C-p300 interaction (FLAG pull-down) (p53Y220C and p300; NCI-H1299 p53Y220C cells): induced an interaction between p53Y220C and p300 | cell growth inhibition (NCI-H1299 p53-null cells [2]): did not induce any significant cell growth inhibition | K382 acetylation (NCI-H1299 p53-null cells [3]): did not induce K382 acetylation | clonogenicity (BxPC3 cells): marked reduction in clonogenicity | clonogenicity (NUGC-3 cells): marked reduction in clonogenicity | increase in the p53K382ac level (p53Y220C [4]): about 4 fold | increase in the p53K382ac level (p53Y220C [5]): about 4 fold | inhibition of cell growth at the highest concentration tested [6]: 30–40% | GI50 [6]: > 10 µM | GI50 (PNT2 cells): > 10 µM | effect on TIGAR, BAX, and PUMA (BBC3) genes (p53-target genes [7]): little or modest effect | expression of p21 (CDKN1A) and Mdm2 genes (p53-target genes [7]): less upregulation | increase in p21 mRNA expression (p53-target genes [7]): 8 fold | expression of BAX, PUMA (BBC3), and NOXA (PMAIP1) genes (p53-target genes [8]): no significant upregulation | expression of DDR genes such as ATM, ATR, and CHEK1/2 (p53-target genes [8]): downregulation | expression of heat shock protein genes such as HSPA5, HSP40 (DNAJB1), HSP1A1/B (p53-target genes [8]): upregulation | cell growth inhibition (NCI-H1299 p53Y220C cells; 72 h): concentration-dependently inhibited the cell growth | antiproliferative effect after knockdown of p300 (NCI-H1299 p53Y220C cells; [12]): abolished the antiproliferative effect | GI50 (BxPC3 (p53Y220C/−) cells): 3.3 ± 1 µM | higher potency compared to the parent compound PK9328 (BxPC3 (p53Y220C/−) cells; GI50 in BxPC3 and NUGC-3): about 4 fold | GI50 [9]: 2.7 ± 0.5 µM | selectivity over a panel of other BRD-containing proteins [10]: selective for the CBP/p300 BRD

CCn1c2ccc(CNC)cc2c2ccc(-c3cscn3)cc21 [PK9323]
stabilizes p53Y220C with a melting temperature (Tm) (p53Y220C [11]): 3.1 °C

CCn1c2ccc(CNC)cc2c2ccc(-c3cc(C)cs3)cc21 [PK9328, reference compound]
cell growth inhibition (NCI-H1299 p53-null cells [2]): did not induce any significant cell growth inhibition | K382 acetylation (NCI-H1299 p53-null cells [3]): did not significantly induce K382 acetylation | inhibition of cell growth at the highest concentration tested [6]: 30–40% | GI50 [6]: > 10 µM | GI50 (PNT2 cells): > 10 µM | effect on TIGAR, BAX, and PUMA (BBC3) genes (p53-target genes [7]): little or modest effect | expression of p21 (CDKN1A) and Mdm2 genes (p53-target genes [7]): upregulated | increase in p21 mRNA expression (p53-target genes [7]): 12 fold | reduction in the cell growth in p300-siRNA-treated cells (NCI-H1299 p53Y220C cells; [12]): about 50% | GI50 (BxPC3 (p53Y220C/−) cells): 13.9 ± 2.4 µM | GI50 [9]: 12.6 ± 1.9 µM
